Source: the supplement of paper PMC10307832

How the values were obtained:
Assay in all cases: relative viability (nuclei count vs DMSO), 5 days (fraction); higher = more cells survive
TPCA-1 + Navitoclax = compound: C1=CC(=CC=C1C2=CC(=C(S2)NC(=O)N)C(=O)N)F [TPCA-1] + CC1(C)CCC(c2ccc(Cl)cc2)=C(CN2CCN(c3ccc(C(=O)NS(=O)(=O)c4ccc(N[C@H](CCN5CCOCC5)CSc5ccccc5)c(S(=O)(=O)C(F)(F)F)c4)cc3)CC2)C1 [Navitoclax] (partner 0.5 µM)
Summary of the method: (§1)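 Relative viability is defined as nuclei in treated wells over nuclei in vehicle wells. Duplicate plates were run and medians reported. Lung cancer cell lines in 1536-well plates were dosed by pin tool one day after seeding, with one drug or with a fixed anchor-drug dose plus five library-drug doses (not always all listed) in √10 steps, and nuclei were counted after 5 days.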

[1] = compound: C[C@]12O[C@H](C[C@]1(O)CO)n1c3ccccc3c3c4c(c5c6ccccc6n2c5c31)CNC4=O [Lestaurtinib] + CCNC(=O)c1noc(-c2cc(C(C)C)c(O)cc2O)c1-c1ccc(CN2CCOCC2)cc1 [Luminespib] (partner 0.01 µM)
Summary of the method: as §1

[2] = compound: C[C@]12O[C@H](C[C@]1(O)CO)n1c3ccccc3c3c4c(c5c6ccccc6n2c5c31)CNC4=O [Lestaurtinib] + CC(=O)c1c(C)c2cnc(Nc3ccc(N4CCNCC4)cn3)nc2n(C2CCCC2)c1=O [Palbociclib] (partner 0.5 µM)
Summary of the method: as §1

Lestaurtinib + Lapatinib = compound: C[C@]12O[C@H](C[C@]1(O)CO)n1c3ccccc3c3c4c(c5c6ccccc6n2c5c31)CNC4=O [Lestaurtinib] + CS(=O)(=O)CCNCc1ccc(-c2ccc3ncnc(Nc4ccc(OCc5cccc(F)c5)c(Cl)c4)c3c2)o1 [Lapatinib] (partner 2 µM)
Summary of the method: as §1

| Cell Line | relative viability (TPCA-1 + Navitoclax; first compound 0.04 µM) | relative viability (TPCA-1 + Navitoclax; first compound 0.1265 µM) | relative viability (TPCA-1 + Navitoclax; first compound 0.4 µM) | relative viability (TPCA-1 + Navitoclax; first compound 1.265 µM) | relative viability (TPCA-1 + Navitoclax; first compound 4 µM) | relative viability ([1]; first compound 0.005 µM) | relative viability ([1]; first compound 0.01581 µM) | relative viability ([1]; first compound 0.05 µM) | relative viability ([1]; first compound 0.1581 µM) | relative viability ([1]; first compound 0.5 µM) | relative viability ([2]; first compound 0.005 µM) | relative viability ([2]; first compound 0.01581 µM) | relative viability ([2]; first compound 0.05 µM) | relative viability ([2]; first compound 0.1581 µM) | relative viability ([2]; first compound 0.5 µM) | relative viability (Lestaurtinib + Lapatinib; first compound 0.005 µM) | relative viability (Lestaurtinib + Lapatinib; first compound 0.01581 µM) | relative viability (Lestaurtinib + Lapatinib; first compound 0.05 µM) | relative viability (Lestaurtinib + Lapatinib; first compound 0.1581 µM) | relative viability (Lestaurtinib + Lapatinib; first compound 0.5 µM) |
| --- | --- | --- | --- | --- | --- | --- | --- | --- | --- | --- | --- | --- | --- | --- | --- | --- | --- | --- | --- | --- |
| NCI-H647 | 1.1 | 0.9 | 1.22 | 0.67 | 0.706 | 0.153 | 0.115 | 0.12 | 0.0972 | 0.0647 | 0.382 | 0.201 | 0.227 | 0.247 | 0.164 | 0.837 | 0.735 | 0.217 | 0.146 | 0.114 |
| NCI-H727 | 0.409 | 0.431 | 0.512 | 0.413 | 0.404 | 0.478 | 0.401 | 0.427 | 0.284 | 0.387 | 0.723 | 0.713 | 0.719 | – | 0.716 | 1.21 | 0.986 | 0.78 | 0.813 | 0.263 |
| NCI-H838 | 1.23 | 0.985 | 1.13 | 0.995 | 0.812 | 0.321 | 0.321 | 0.284 | 0.227 | 0.197 | 0.209 | 0.204 | 0.196 | 0.194 | 0.147 | 1.04 | 0.998 | 0.664 | 0.451 | 0.132 |
| NCI-H1355 | 1.02 | 0.903 | 0.912 | 0.826 | 0.686 | 0.646 | 0.625 | 0.455 | 0.493 | 0.261 | 0.455 | 0.403 | 0.332 | 0.273 | 0.254 | 1.06 | 1.03 | 0.942 | 0.732 | 0.658 |
| NCI-H1395 | 1.2 | 0.932 | 1.25 | 1.05 | 0.99 | 0.654 | 0.668 | 0.616 | 0.472 | 0.374 | 0.646 | 0.617 | 0.547 | 0.573 | 0.477 | 1.15 | 1.26 | 0.848 | 0.853 | 0.416 |
| NCI-H1437 | 1.11 | 1.05 | 1.13 | 1.07 | 1.08 | 1.21 | 1.26 | 1.06 | 1.16 | 0.962 | 0.35 | 0.371 | 0.369 | 0.364 | 0.415 | 0.775 | 0.866 | 0.529 | 0.414 | 0.114 |
| NCI-H1650 | 1.3 | 1.05 | 1.27 | 1.09 | 1.1 | 0.183 | 0.195 | 0.188 | 0.164 | 0.18 | 0.353 | 0.433 | 0.356 | 0.396 | 0.245 | 0.987 | 0.95 | 0.817 | 0.512 | 0.157 |
| NCI-H1651 | 0.97 | 0.913 | 0.947 | 1.16 | 0.995 | 0.866 | 0.938 | 0.897 | 0.806 | 0.461 | 0.536 | 0.594 | 0.551 | 0.569 | 0.497 | 0.756 | 0.93 | 0.715 | 0.636 | 0.211 |
